Laboratory results taken from patent publication US10662164B2, “Non-beta lactam antibiotics” (University of Notre Dame du Lac, priority 2014, dated 2020).
Converted amounts (≈) assume the structure as drawn. Read-outs that look alike come from different tables or passages of the source.

Tests used:
S. aureus ATCC 29213 = test: MIC determination; assay type: cell-based, Staphylococcus aureus; conditions: for antibacterial activity in words (SAR, ring A derivatives): S. aureus ATCC 29213, compounds of Schemes 3-4; for MIC: Staphylococcus aureus
E. faecium NCTC 7171 = test: MIC determination; assay type: cell-based, Enterococcus faecium; conditions: Enterococcus faecium
[1] = ATCC29213, Table 3.1 and SAR text, compounds of Schemes 2-4, read-out: S. aureus ATCC 29213 MIC
[2] = NCTC7171, Table 3.1, compounds of Schemes 2-4, read-out: E. faecium NCTC 7171 MIC

| Structure (SMILES) | antibacterial activity in words (SAR, ring A derivatives) (S. aureus ATCC 29213) | MIC (S. aureus ATCC 29213; [1]) | MIC (E. faecium NCTC 7171; [2]) | antibacterial activity in words (SAR, C/D ring derivatives) (S. aureus ATCC 29213; S. aureus ATCC29213, second numbering, compounds of Scheme 6) | MIC (S. aureus ATCC 29213; ATCC29213, read-out: S. aureus ATCC 29213 MIC) | MIC (E. faecium NCTC 7171; NCTC7171, read-out: E. faecium NCTC 7171 MIC) |
| --- | --- | --- | --- | --- | --- | --- |
| N#Cc1c[nH]nc1-c1nc(-c2ccc(Oc3ccc(C(F)(F)F)cc3)cc2)no1 [Compound 67b] | good activity | 2 µg/mL (≈ 5.03 µM) | > 128 µg/mL | – | – | – |
| O=[N+]([O-])c1cc(-c2nc(-c3ccc(Oc4ccc(C(F)(F)F)cc4)cc3)no2)cnc1O [Compound 77b] | – | 8 µg/mL (≈ 18 µM) | 4 µg/mL (≈ 9 µM) | – | – | – |
| COc1ccc(-c2nc(-c3ccc(Oc4ccc(C(F)(F)F)cc4)cc3)no2)cc1OC [Compound 101b] | – | > 128 µg/mL | > 128 µg/mL | – | – | – |
| Oc1ccc(-c2nc(-c3ccc(Oc4ccc(F)cc4)cc3)no2)cn1 [Compound 120c] | – | > 128 µg/mL | 64 µg/mL (≈ 183 µM) | – | – | – |
| Fc1ccc(Oc2ccc(-c3noc(-c4cnc[nH]4)n3)cc2)cc1 [Compound 76c] | no activity | > 128 µg/mL | 128 µg/mL (≈ 397 µM) | – | – | – |
| Oc1ccccc1-c1nc(-c2ccc(Oc3ccccc3)cc2)no1 [Compound 97a] | failed to show significant activity | > 128 µg/mL | > 128 µg/mL | – | – | – |
| CS(=O)(=O)Nc1ccc(-c2nc(-c3ccc(Oc4ccc(C(F)(F)F)cc4)cc3)no2)cc1 [Compound 86b] | – | > 128 µg/mL | 32 µg/mL (≈ 67.3 µM) | – | – | – |
| Oc1c(F)cc(-c2nc(-c3ccc(Oc4ccc(F)cc4)cc3)no2)cc1F [Compound 71c] | – | 8 µg/mL (≈ 20.8 µM) | 4 µg/mL (≈ 10.4 µM) | – | – | – |
| Nc1cncc(-c2nc(-c3ccc(Oc4ccc(F)cc4)cc3)no2)c1 [Compound 122c] | – | > 128 µg/mL | 128 µg/mL (≈ 367 µM) | – | – | – |
| COc1ccc(-c2nc(-c3ccc(Oc4ccc(C(F)(F)F)cc4)cc3)no2)cc1[N+](=O)[O-] [Compound 99b] | – | > 128 µg/mL | > 128 µg/mL | – | – | – |
| COc1ccc(-c2nc(-c3ccc(Oc4ccc(F)cc4)cc3)no2)cc1OC [Compound 101c] | – | > 128 µg/mL | > 128 µg/mL | – | – | – |
| Oc1cccc(-c2nc(-c3ccc(Oc4ccccc4)cc3)no2)c1 [Compound 95a] | failed to show significant activity | > 128 µg/mL | > 128 µg/mL | – | – | – |
| FC(F)(F)c1ccc(Oc2ccc(-c3noc(-c4cnn[nH]4)n3)cc2)cc1 [Compound 117b] | No activity | 16 µg/mL (≈ 42.9 µM) | > 128 µg/mL | – | – | – |
| Nc1cc(-c2nc(-c3ccc(Oc4ccc(F)cc4)cc3)no2)cnc1O [Compound 121c] | – | > 128 µg/mL | 128 µg/mL (≈ 351 µM) | – | – | – |
| CC(C)Nc1c[nH]nc1-c1nc(-c2ccc(Oc3ccccc3)cc2)no1 [Compound 65a] | – | – | – | did not alter the activity | 0.5 µg/mL (≈ 1.38 µM) | > 128 µg/mL |
| Nc1ccc(-c2nc(-c3ccc(Oc4ccc(C(F)(F)F)cc4)cc3)no2)cc1 [Compound 58b] | – | 1 µg/mL (≈ 2.52 µM) | 2 µg/mL (≈ 5.03 µM) | – | – | – |
| CC(C)c1cc(-c2nc(-c3ccc(Oc4ccc(F)cc4)cc3)no2)[nH]n1 [Compound 119c] | No activity | > 128 µg/mL | 64 µg/mL (≈ 176 µM) | – | – | – |
| NS(=O)(=O)c1ccc(-c2nc(-c3ccc(Oc4ccc(F)cc4)cc3)no2)cc1 [Compound 87c] | – | > 128 µg/mL | > 128 µg/mL | – | – | – |
| Oc1ccc(-c2nc(-c3ccc(Oc4ccc(F)cc4)cc3)no2)cc1O [Compound 69c] | – | 4 µg/mL (≈ 11 µM) | 8 µg/mL (≈ 22 µM) | – | – | – |
| FC(F)(F)c1ccc(Oc2ccc(-c3noc(-c4c[nH]c5ncccc45)n3)cc2)cc1 [Compound 125b] | – | > 128 µg/mL | 32 µg/mL (≈ 75.8 µM) | – | – | – |
| Fc1ccc(Oc2ccc(-c3noc(-c4c[nH]c5ncccc45)n3)cc2)cc1 [Compound 125c] | – | > 128 µg/mL | 64 µg/mL (≈ 172 µM) | – | – | – |
| NC(=O)c1ccc(-c2nc(-c3ccc(Oc4ccc(F)cc4)cc3)no2)cc1 [Compound 88c] | failed to show significant activity | > 128 µg/mL | 64 µg/mL (≈ 171 µM) | – | – | – |
| Nc1cc(-c2nc(-c3ccc(Oc4ccc(F)cc4)cc3)no2)ccc1O [Compound 92c] | failed to show significant activity | > 128 µg/mL | 128 µg/mL (≈ 352 µM) | – | – | – |
| NCCCCc1nc(-c2ccc(Oc3ccccc3)cc2)no1 [Compound 137a] | – | ≥ 32 µg/mL | 32 µg/mL (≈ 103 µM) | – | – | – |

| Structure (SMILES) | antibacterial activity in words (SAR, ring A derivatives) (S. aureus ATCC 29213) | MIC (S. aureus ATCC 29213; [1]) | MIC (E. faecium NCTC 7171; [2]) | antibacterial activity in words (SAR, C/D ring derivatives) (S. aureus ATCC 29213; S. aureus ATCC29213, second numbering, compounds of Scheme 6) | MIC (S. aureus ATCC 29213; ATCC29213, read-out: S. aureus ATCC 29213 MIC) | MIC (E. faecium NCTC 7171; NCTC7171, read-out: E. faecium NCTC 7171 MIC) |
| --- | --- | --- | --- | --- | --- | --- |
| O=[N+]([O-])c1cc(-c2nc(-c3ccc(Oc4ccc(F)cc4)cc3)no2)ccc1O [Compound 91c] | failed to show significant activity | > 128 µg/mL | > 128 µg/mL | – | – | – |
| NS(=O)(=O)c1ccc(-c2nc(-c3ccc(Oc4ccc(C(F)(F)F)cc4)cc3)no2)cc1 [Compound 87b] | – | > 128 µg/mL | 128 µg/mL (≈ 277 µM) | – | – | – |
| Fc1ccc(Oc2ccc(-c3noc(-c4ccc(Br)cc4)n3)cc2)cc1 [Compound 81c] | – | > 128 µg/mL | > 128 µg/mL | – | – | – |
| COc1ccc(-c2nc(-c3ccc(Oc4ccccc4)cc3)no2)cc1[N+](=O)[O-] [Compound 99a] | – | > 128 µg/mL | 128 µg/mL (≈ 329 µM) | – | – | – |
| c1ccc(Oc2ccc(-c3noc(C4CCOCC4)n3)cc2)cc1 [Compound 131a] | – | > 128 µg/mL | > 128 µg/mL | – | – | – |
| c1ccc(Oc2ccc(-c3noc(-c4ccncc4)n3)cc2)cc1 [Compound 114a] | No activity | > 128 µg/mL | 64 µg/mL (≈ 203 µM) | – | – | – |
| FC(F)(F)c1ccc(Oc2ccc(-c3noc(-c4nc[nH]n4)n3)cc2)cc1 [Compound 116b] | No activity | > 128 µg/mL | > 128 µg/mL | – | – | – |
| Nc1c[nH]c(-c2nc(-c3ccc(Oc4ccc(F)cc4)cc3)no2)c1 [Compound 126c] | No activity | 128 µg/mL (≈ 381 µM) | 64 µg/mL (≈ 190 µM) | – | – | – |
| COc1ccc(-c2nc(-c3ccc(Oc4ccc(F)cc4)cc3)no2)cc1[N+](=O)[O-] [Compound 99c] | – | > 128 µg/mL | > 128 µg/mL | – | – | – |
| Oc1ccc(-c2nc(-c3ccc(Oc4ccc(C(F)(F)F)cc4)cc3)no2)cc1O [Compound 69b] | – | 2 µg/mL (≈ 4.83 µM) | 128 µg/mL (≈ 309 µM) | – | – | – |
| Brc1c[nH]nc1-c1nc(-c2ccc(Oc3ccccc3)cc2)no1 [61a] | – | 1 µg/mL (≈ 2.61 µM) | 16 µg/mL (≈ 41.8 µM) | – | – | – |
| O=[N+]([O-])c1c[nH]nc1-c1nc(-c2ccc(Oc3ccc(C(F)(F)F)cc3)cc2)no1 [Compound 63b, 5-(4-Nitro-1H-pyrazole-3-yl)-3-(4-(4-(trifluoromethyl)phenoxy)phenyl)-1,2,4-oxadiazole] | – | 2 µg/mL (≈ 4.79 µM) | 2 µg/mL (≈ 4.79 µM) | – | – | – |
| CCC(C)Nc1c[nH]nc1-c1nc(-c2ccc(Oc3ccc(C(F)(F)F)cc3)cc2)no1 (centres unmarked) [Compound 105b] | did not extend | > 128 µg/mL | 128 µg/mL (≈ 289 µM) | – | – | – |
| CCCCNc1c[nH]nc1-c1nc(-c2ccc(Oc3ccc(C(F)(F)F)cc3)cc2)no1 [Compound 104b] | did not extend | > 128 µg/mL | > 128 µg/mL | – | – | – |
| Oc1ccc(-c2nc(-c3ccc(Oc4ccc(F)cc4)cc3)no2)cc1 [Compound 57c] | – | 1 µg/mL (≈ 2.87 µM) | 1 µg/mL (≈ 2.87 µM) | – | – | – |
| FC(F)(F)c1ccc(Oc2ccc(-c3noc(-c4n[nH]cc4NC4CCCC4)n3)cc2)cc1 [Compound 107b] | did not extend | > 128 µg/mL | > 128 µg/mL | – | – | – |
| COc1cc(-c2nc(-c3ccc(Oc4ccccc4)cc3)no2)ccc1N [Compound 94a] | – | > 128 µg/mL | > 128 µg/mL | – | – | – |
| Nc1cc(-c2nc(-c3ccc(Oc4ccc(C(F)(F)F)cc4)cc3)no2)cnc1O [Compound 121b] | – | > 128 µg/mL | 64 µg/mL (≈ 154 µM) | – | – | – |
| Nc1c[nH]nc1-c1nc(-c2ccc(Oc3ccc(C(F)(F)F)cc3)cc2)no1 [Compound 64b, 3-(3-(4-(4-(Trifluoromethyl)phenoxy)phenyl)-1,2,4-oxadiazol-5-yl)-1H-pyrazol-4-amine] | – | 4 µg/mL (≈ 10.3 µM) | 16 µg/mL (≈ 41.3 µM) | – | – | – |
| Nc1cncc(-c2nc(-c3ccc(Oc4ccc(C(F)(F)F)cc4)cc3)no2)c1 [Compound 122b] | – | > 128 µg/mL | > 128 µg/mL | – | – | – |
| FC(F)(F)c1ccc(Oc2ccc(-c3noc(-c4n[nH]cc4Br)n3)cc2)cc1 [Compound 61b] | – | 1 µg/mL (≈ 2.22 µM) | > 128 µg/mL | – | – | – |
| FC(F)(F)c1ccc(Oc2ccc(-c3noc(-c4n[nH]c5ccccc45)n3)cc2)cc1 [Compound 123b] | – | > 128 µg/mL | > 128 µg/mL | – | – | – |
| Oc1ccc(-c2nc(-c3ccc(Oc4ccc(C(F)(F)F)cc4)cc3)no2)cn1 [Compound 120b] | – | > 128 µg/mL | 32 µg/mL (≈ 80.1 µM) | – | – | – |
